The structures appear in SMILES notation.

For the assay, the target named is Serotonin 2 (5-HT2) receptor (Rattus norvegicus, UniProt P30994+P08909+P14842). In words: In vitro binding affinity towards 5-hydroxytryptamine 2 receptor in rat striatal membranes by [3H]ketanserin displacement. The class given is cell membranes, Striatum, Membrane.

In general, Ki refers to a measure of affinity in units of concentration, obtained from inhibition or displacement. Read a high Ki as weaker binding. Turning to `O=C(CCCCN1C2CCC1c1c([nH]c3ccc(F)cc13)C2)c1ccc(F)cc1` (racemic), the Ki is given as 2.98 nM.
With `O=C(CCCN1C2CCC1c1c([nH]c3ccc(F)cc13)C2)c1ccc(F)cc1` (mixture of isomers), the Ki is reported as 2.56 nM. The Ki values of the last two compounds are within 1.5-fold of each other.
`O=C(CCCN1C2CCC1c1c([nH]c3ccc(F)cc13)C2)c1ccc(F)cc1` (stereo in doubt; (S,R) 8) registered a Ki of 0.8 nM. This Ki is about 3.2-fold lower than that of the compound before.
`O=C(CCCCN1C2CCC1c1c([nH]c3ccc(F)cc13)C2)c1ccc(F)cc1` (stereo in doubt; (S,R)-9) came in with a Ki of 1.87 nM.
For the compound `O=C(CCCCN1C2CCC1c1c([nH]c3ccc(F)cc13)C2)c1ccc(F)cc1` (mixture of isomers), the Ki was 109 nM.
`O=C(CCCN1C2CCC1c1c([nH]c3ccc(F)cc13)C2)c1ccc(F)cc1` (racemic): the Ki is recorded as 1.96 nM.

The record behind these values is ChEMBL document CHEMBL1126850, “Examination of the D2/5-HT2 affinity ratios of resolved 5,6,7,8,9,10-hexahydro-7,10-iminocyclohept[b]indoles: an enantioselective approach toward the design of potential atypical antipsychotics” (J Med Chem, 1993).
